Measurements published in patent US12150940B2, “WASp-protecting small molecules, compositions, methods and uses thereof in the treatment of innate and acquired immune-related disorders or conditions” (BAR ILAN UNIVERSITY, priority 2016, dated 2024).
Peptide text beside a SMILES is read from it. * marks the point of attachment. Cbz = O=C(OCc1ccccc1)*

Key:
[1] = target: T1, WASp (Homo sapiens, UniProt P42768); assay: WASp expression in TRAP-6-activated platelets (western blot); assay type: cell-based
T1 construct: endogenous in cells; host or cells: primary human platelets from healthy donors
T1 sequence (P42768 1-502): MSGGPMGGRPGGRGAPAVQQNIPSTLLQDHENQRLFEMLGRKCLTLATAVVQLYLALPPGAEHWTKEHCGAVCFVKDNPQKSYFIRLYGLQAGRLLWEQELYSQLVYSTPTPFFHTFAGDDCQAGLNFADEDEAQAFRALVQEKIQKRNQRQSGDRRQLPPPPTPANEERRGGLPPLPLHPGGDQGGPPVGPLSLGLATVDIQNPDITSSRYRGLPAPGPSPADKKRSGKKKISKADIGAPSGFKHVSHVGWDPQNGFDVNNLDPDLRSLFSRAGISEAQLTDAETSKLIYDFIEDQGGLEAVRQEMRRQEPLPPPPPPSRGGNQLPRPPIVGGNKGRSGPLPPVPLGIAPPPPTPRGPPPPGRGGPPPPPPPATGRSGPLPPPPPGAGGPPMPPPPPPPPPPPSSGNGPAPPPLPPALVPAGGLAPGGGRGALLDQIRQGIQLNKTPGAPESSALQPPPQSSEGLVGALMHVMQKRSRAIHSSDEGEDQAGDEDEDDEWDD
Method: FIG. 4A-4B. Freshly-isolated platelets were incubated with SMC #6 or control at 37° C. for the indicated times. The platelets were either stimulated (+) with TRAP-6 (10 μM) or left unstimulated (−), followed by lysis. Lysates were analyzed for WASp expression by immunoblotting with anti-WASp and anti-GAPDH as loading control (FIG. 4A). Relative WASp expression was determined by densitometric analysis and is presented in a summarizing graph of FIG. 4B. Error bars represent the SE from the mean. P values are presented and were calculated by two-tailed Student's t-test. Data are representative of three independent experiments.
Jurkat T-cells (FIG. 5A) or Freshly-isolated PBMCs (FIG. 5B) were incubated for 15 min at 37° C. with either control or the indicated WASp-binding SMCs, followed by co-stimulation with anti-CD3 and anti-CD28 and lysis. Freshly-isolated platelets were incubated for 15 min at 37° C. with either control or the indicated WASp-binding SMCs, followed by stimulation with TRAP-6 (10 μM) and lysis (FIG. 5C). Lysates were analyzed for WASp expression by immunoblotting with anti-WASp and anti-GAPDH as loading control. Western blot is representative of three independent experiments. […] Relative WASp expression was determined by densitometric analysis. […]
FIG. 6A-6D. […] Lysates were analyzed for WASp expression by immunoblotting with anti-WASp and anti-GAPDH as loading control (FIG. 6A). […]

[2] = test system: platelets; assay: Platelet intra-cellular calcium concentration (Indo-1-AM); assay type: cell-based, human; conditions: TRAP-6 10 μM, vs solvent
Method: Freshly-isolated human platelets were incubated with either control DMSO or the indicated WASp-binding SMCs, specifically, SMC #6 (FIG. 11A), SMC #30 (FIG. 11B), SMC #33 (FIG. 11C) and SMC #34 (FIG. 11D). Platelets were stimulated with TRAP-6 and calcium levels were measured by spectrofluorometer, as described in Experimental procedures. Data are representative of three independent experiments.
Cells were incubated with 5 μM Indo-1-acetoxymethylester (Indo-1-AM, Teflabs) in Tyrode's buffer at 37° C. for 20 min. The cells were washed once, resuspended in Tyrode's buffer containing 10 mM HEPES and maintained at room temperature for 20 min. The cells were incubated at 37° C. for 5 min before measurements and then stimulated with 10 μM TRAP-6. The Ca^2+ influx was measured by spectrofluorometer using the Synergy 4 Microplate Reader (Bio Tek).
However, following receptor-mediated stimulation, platelets dramatically elevate their intra-cellular calcium concentrations, which in turn serve as signaling cues that evoke platelet effector functions, including platelet spreading, adhesion and aggregation (Varga-Sabo et al, 2009). Therefore, the ability of WASp-protecting SMCs to upregulate intra-cellular calcium accumulation in activated platelets was next tested. Freshly-isolated human platelets were incubated with SMC #6, #30, #33 and #34 or with the solvent (negative control). Following incubation, platelets were stimulated with thrombin receptor activator peptide TRAP-6 (10 μM) and calcium levels were measured by spectrofluorometer, using Indo-1-AM-based calcium assay as described in Experimental procedures.

SMILES | WASp degradation in activated platelets ([1]; 40 μM, 15 min pre-incubation, vs DMSO control) | intra-cellular calcium concentration in activated platelets [2] | increase in WASp expression ([1]; platelets after 15 min of activation, with vs without proteasome inhibitor (10 μM, 1 h))
CC(=O)N[C@H]1C[C@@H](c2ccc3c(c2)nnn3C)O[C@@H](c2ccc(Cl)cc2)C1 [SMC #6, N-[(2R,4R,6S)-2-(4-chlorophenyl)-6-(1-methylbenzotriazol-5-yl)oxan-4-yl]acetamide] | attenuated WASp degradation | dramatically enhanced | 
CC(C)C[C@@H](C=O)NC(=O)[C@H](CC(C)C)NC(=O)[C@H](CC(C)C)NC(=O)OCc1ccccc1 [MG132] (Cbz-Leu-Leu-Leu-aldehyde) |  |  | more than 2 fold
Cc1ccccc1N(CC(=O)NCc1ccccc1)C(=O)CCC(=O)Nc1nccs1 [SMC #33, N′-[2-(benzylamino)-2-oxoethyl]-N′-(2-methylphenyl)-N-(1,3-thiazol-2-yl)butanediamide] |  | dramatically enhanced | 
CC1CCCC(C)N1C(=O)CSc1nnc(COc2cccc3cccnc23)o1 (centres unmarked) [SMC #34, 1-(2,6-dimethylpiperidin-1-yl)-2-[[5-(quinolin-8-yloxymethyl)-1,3,4-oxadiazol-2-yl]sulfanyl]ethanone] |  | dramatically enhanced | 
